Data from ChEMBL document CHEMBL1155946, “Design, synthesis and biological evaluation of glutathione peptidomimetics as components of anti-Parkinson prodrugs” (J Med Chem, 2008).
The source made the active and inactive calls. The calls are words filed in the database; no cut-off is given here.

Columns and labels:
[1] = Metabolic stability in rat plasma at 37 degC; assay type: ADME, cell-free
[2] = Metabolic stability in rat brain at 37 degC; assay type: ADME, tissue-based
[3] = system: MDCK; test: Inhibition of [3H]glutathione uptake at glutathione transporter in MDCK cells at 10 nM to 1000 nM by HPLC; assay type: cell-based; conditions: Canis lupus familiaris
[4] = Stability in buffer solution at pH 7.2

Row | SMILES | half-life [1] [h] | half-life [2] [h] | Activity [3] | half-life [4] [h]
1 | N[C@@H](CNC(=O)N[C@@H](CSSCC(=O)C(=O)NCCc1ccc(O)c(O)c1)C(=O)NCC(=O)O)C(=O)O | 3 | 6 | Active | > 12
2 | N[C@@H](CNC(=O)N[C@@H](CSSCC(=O)C(=O)NC12CC3CC(CC(C3)C1)C2)C(=O)NCC(=O)O)C(=O)O |  |  | Active | 
